Assays:
[1] = target: Serine/threonine-protein kinase tousled-like 1 (Homo sapiens) (UniProt Q9UKI8); test: Inhibition of wild-type human partial length TLK1 (K447 to A754 residues) expressed in bacterial expression system assessed as residual activity at 1 uM by Kinomescan method relative to control
[2] = target: Serine/threonine-protein kinase OSR1 (Homo sapiens) (UniProt O95747); test: Inhibition of wild-type human full length OSR1 (M1 to S527 residues) expressed in mammalian expression system assessed as residual activity at 1 uM by Kinomescan method relative to control
Chain of Serine/threonine-protein kinase OSR1 (Homo sapiens) (O95747 2-527 limits assumed): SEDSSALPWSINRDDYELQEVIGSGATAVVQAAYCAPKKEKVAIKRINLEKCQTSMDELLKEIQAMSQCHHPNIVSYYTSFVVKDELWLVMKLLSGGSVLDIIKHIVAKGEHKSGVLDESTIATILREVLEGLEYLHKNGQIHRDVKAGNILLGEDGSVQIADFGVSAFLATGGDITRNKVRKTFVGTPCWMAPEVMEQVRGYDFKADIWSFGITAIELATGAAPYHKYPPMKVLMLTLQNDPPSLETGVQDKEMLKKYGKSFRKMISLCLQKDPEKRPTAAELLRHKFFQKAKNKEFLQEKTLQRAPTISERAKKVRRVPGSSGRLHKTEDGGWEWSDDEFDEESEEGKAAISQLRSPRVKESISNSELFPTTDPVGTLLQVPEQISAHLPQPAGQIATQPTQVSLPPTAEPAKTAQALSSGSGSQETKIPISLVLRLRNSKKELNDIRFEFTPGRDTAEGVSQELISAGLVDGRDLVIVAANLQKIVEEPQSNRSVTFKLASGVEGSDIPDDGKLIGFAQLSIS

[3] = target: Serine/threonine-protein kinase D2 (Homo sapiens) (UniProt Q9BZL6); test: Inhibition of wild-type human partial length PRKD2 (A519 to E838 residues) expressed in bacterial expression system assessed as residual activity at 1 uM by Kinomescan method relative to control
[4] = target: Mitogen-activated protein kinase kinase kinase kinase 1 (Homo sapiens) (UniProt Q92918); test: Inhibition of wild-type human full length HPK1 (M1 to R799 residues) expressed in bacterial expression system assessed as residual activity at 1 uM by Kinomescan method relative to control
[5] = target: Serine/threonine-protein kinase 25 (Homo sapiens) (UniProt O00506); test: Inhibition of wild-type human partial length YSK1 (V14 to H295 residues) expressed in bacterial expression system assessed as residual activity at 1 uM by Kinomescan method relative to control
[6] = target: Ephrin type-A receptor 2 (Homo sapiens) (UniProt P29317); test: Inhibition of wild-type human partial length EPHA2 (T593 to V891 residues) expressed in bacterial expression system assessed as residual activity at 1 uM by Kinomescan method relative to control
[7] = target: Serine/threonine-protein kinase Nek10 (Homo sapiens) (UniProt Q6ZWH5); test: Inhibition of wild-type human partial length NEK10 (L488 to R809 residues) expressed in mammalian expression system assessed as residual activity at 1 uM by Kinomescan method relative to control
Chain of Serine/threonine-protein kinase Nek10 (Homo sapiens) (Q6ZWH5 whole entry, the tested form may be a part): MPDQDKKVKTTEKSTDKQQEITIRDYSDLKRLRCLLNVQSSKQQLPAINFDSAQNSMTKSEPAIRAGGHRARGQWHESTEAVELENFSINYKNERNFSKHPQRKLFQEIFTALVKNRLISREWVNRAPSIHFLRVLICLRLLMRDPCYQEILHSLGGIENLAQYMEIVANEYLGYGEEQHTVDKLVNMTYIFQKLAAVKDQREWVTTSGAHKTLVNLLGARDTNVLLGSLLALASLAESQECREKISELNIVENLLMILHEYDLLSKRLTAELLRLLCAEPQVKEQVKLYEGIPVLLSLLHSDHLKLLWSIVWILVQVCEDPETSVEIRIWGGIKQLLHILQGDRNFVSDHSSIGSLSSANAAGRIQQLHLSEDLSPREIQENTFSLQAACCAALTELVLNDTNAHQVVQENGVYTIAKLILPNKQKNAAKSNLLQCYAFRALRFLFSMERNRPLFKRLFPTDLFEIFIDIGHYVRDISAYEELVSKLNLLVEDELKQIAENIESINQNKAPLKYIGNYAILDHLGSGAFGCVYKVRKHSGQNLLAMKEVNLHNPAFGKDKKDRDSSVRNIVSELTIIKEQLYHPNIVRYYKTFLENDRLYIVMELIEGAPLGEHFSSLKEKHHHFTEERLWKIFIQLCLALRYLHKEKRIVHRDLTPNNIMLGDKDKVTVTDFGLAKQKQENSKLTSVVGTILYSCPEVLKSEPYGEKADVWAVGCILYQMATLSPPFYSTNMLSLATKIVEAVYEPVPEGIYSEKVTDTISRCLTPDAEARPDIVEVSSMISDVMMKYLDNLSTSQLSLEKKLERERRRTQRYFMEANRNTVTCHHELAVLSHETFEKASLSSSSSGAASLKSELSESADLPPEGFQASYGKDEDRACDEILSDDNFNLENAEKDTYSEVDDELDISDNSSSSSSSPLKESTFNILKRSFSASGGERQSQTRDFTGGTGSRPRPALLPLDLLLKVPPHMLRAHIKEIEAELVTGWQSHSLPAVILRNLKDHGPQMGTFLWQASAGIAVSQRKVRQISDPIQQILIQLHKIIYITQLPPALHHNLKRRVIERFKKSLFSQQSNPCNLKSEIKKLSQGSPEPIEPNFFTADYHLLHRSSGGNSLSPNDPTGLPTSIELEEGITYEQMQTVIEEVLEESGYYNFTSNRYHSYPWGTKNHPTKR

[8] = target: Serine/threonine-protein kinase 16 (Homo sapiens) (UniProt O75716); test: Inhibition of wild-type human partial length STK16 (G11 to I305 residues) expressed in bacterial expression system assessed as residual activity at 1 uM by Kinomescan method relative to control
Chain of Serine/threonine-protein kinase 16 (Homo sapiens) (O75716 whole entry, the tested form may be a part): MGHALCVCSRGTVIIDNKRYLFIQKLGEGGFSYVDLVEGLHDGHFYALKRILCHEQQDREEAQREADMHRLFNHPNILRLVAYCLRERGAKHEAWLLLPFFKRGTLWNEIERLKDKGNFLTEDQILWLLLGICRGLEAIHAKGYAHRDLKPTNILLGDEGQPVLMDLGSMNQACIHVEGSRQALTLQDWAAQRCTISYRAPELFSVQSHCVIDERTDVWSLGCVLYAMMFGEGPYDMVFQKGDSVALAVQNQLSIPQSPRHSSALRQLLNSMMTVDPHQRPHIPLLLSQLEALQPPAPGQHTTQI

[9] = target: Membrane-associated tyrosine- and threonine-specific cdc2-inhibitory kinase (Homo sapiens) (UniProt Q99640); test: Inhibition of wild-type human partial length PKMYT1 (A88 to G366 residues) expressed in bacterial expression system assessed as residual activity at 1 uM by Kinomescan method relative to control
[10] = target: Myosin light chain kinase, smooth muscle (Homo sapiens) (UniProt Q15746); test: Inhibition of wild-type human full length MYLK (M854 to E1845 residues) expressed in mammalian expression system assessed as residual activity at 1 uM by Kinomescan method relative to control
Chain of Myosin light chain kinase, smooth muscle (Homo sapiens) (Q15746 whole entry, the tested form may be a part): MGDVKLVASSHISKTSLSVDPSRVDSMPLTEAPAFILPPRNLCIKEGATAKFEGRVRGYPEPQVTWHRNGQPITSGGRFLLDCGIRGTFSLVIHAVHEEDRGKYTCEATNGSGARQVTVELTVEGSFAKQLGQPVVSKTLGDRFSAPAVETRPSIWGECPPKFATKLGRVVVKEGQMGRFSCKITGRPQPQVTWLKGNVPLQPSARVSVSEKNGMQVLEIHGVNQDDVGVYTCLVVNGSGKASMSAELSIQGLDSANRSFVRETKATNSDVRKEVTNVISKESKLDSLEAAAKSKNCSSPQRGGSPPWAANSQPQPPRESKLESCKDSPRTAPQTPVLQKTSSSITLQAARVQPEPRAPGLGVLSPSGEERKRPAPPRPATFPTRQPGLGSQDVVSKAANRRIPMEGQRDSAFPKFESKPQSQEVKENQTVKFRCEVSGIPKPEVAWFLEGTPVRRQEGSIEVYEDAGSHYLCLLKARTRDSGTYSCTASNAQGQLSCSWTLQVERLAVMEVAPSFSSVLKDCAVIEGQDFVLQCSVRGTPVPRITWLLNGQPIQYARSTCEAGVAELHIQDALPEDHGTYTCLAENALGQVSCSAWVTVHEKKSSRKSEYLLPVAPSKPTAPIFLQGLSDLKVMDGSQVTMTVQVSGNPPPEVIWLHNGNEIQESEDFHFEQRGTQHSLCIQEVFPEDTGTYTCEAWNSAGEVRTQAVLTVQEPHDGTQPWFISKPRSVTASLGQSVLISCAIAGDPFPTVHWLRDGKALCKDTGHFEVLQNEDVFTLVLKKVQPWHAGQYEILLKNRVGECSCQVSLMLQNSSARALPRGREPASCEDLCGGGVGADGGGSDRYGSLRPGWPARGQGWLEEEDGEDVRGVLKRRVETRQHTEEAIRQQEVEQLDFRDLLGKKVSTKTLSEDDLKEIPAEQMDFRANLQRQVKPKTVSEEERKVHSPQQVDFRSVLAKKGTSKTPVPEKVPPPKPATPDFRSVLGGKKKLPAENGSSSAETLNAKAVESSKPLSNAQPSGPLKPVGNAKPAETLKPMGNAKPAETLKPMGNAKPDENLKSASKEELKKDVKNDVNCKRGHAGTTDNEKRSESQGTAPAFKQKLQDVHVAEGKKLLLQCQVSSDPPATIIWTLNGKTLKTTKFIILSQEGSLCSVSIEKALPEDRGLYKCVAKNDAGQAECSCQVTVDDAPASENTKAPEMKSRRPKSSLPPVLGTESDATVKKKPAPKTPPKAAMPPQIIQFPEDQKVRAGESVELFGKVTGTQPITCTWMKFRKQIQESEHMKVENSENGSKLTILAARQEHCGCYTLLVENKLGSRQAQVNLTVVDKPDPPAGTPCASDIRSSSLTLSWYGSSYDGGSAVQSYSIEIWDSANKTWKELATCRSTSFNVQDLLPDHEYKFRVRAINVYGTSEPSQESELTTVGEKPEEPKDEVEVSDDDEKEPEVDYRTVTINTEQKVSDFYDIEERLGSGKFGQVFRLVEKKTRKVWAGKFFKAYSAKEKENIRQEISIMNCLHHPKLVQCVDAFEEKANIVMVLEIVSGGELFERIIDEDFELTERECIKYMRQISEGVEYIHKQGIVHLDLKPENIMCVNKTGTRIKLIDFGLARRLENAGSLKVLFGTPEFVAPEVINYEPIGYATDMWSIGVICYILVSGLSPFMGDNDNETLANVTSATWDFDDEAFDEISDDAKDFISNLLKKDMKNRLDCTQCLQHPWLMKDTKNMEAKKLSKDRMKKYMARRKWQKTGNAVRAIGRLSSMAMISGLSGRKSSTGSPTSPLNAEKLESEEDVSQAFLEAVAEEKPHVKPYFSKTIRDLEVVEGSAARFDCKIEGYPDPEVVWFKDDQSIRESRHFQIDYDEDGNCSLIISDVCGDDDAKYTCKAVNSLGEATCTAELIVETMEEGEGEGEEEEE

[11] = test system: Mast/stem cell growth factor receptor Kit (Homo sapiens), P10721 [D816V]; test: Inhibition of human partial length KIT D816V mutant (I571 to D952 residues) expressed in bacterial expression system assessed as residual activity at 1 uM by Kinomescan method relative to control
[12] = target: Non-receptor tyrosine-protein kinase TYK2 (Homo sapiens) (UniProt P29597); test: Inhibition of wild-type human partial length TYK2 JH1 catalytic domain (V877 to C1187 residues) expressed in mammalian expression system assessed as residual activity at 1 uM by Kinomescan method relative to control
Chain of Non-receptor tyrosine-protein kinase TYK2 (Homo sapiens) (P29597 whole entry, the tested form may be a part): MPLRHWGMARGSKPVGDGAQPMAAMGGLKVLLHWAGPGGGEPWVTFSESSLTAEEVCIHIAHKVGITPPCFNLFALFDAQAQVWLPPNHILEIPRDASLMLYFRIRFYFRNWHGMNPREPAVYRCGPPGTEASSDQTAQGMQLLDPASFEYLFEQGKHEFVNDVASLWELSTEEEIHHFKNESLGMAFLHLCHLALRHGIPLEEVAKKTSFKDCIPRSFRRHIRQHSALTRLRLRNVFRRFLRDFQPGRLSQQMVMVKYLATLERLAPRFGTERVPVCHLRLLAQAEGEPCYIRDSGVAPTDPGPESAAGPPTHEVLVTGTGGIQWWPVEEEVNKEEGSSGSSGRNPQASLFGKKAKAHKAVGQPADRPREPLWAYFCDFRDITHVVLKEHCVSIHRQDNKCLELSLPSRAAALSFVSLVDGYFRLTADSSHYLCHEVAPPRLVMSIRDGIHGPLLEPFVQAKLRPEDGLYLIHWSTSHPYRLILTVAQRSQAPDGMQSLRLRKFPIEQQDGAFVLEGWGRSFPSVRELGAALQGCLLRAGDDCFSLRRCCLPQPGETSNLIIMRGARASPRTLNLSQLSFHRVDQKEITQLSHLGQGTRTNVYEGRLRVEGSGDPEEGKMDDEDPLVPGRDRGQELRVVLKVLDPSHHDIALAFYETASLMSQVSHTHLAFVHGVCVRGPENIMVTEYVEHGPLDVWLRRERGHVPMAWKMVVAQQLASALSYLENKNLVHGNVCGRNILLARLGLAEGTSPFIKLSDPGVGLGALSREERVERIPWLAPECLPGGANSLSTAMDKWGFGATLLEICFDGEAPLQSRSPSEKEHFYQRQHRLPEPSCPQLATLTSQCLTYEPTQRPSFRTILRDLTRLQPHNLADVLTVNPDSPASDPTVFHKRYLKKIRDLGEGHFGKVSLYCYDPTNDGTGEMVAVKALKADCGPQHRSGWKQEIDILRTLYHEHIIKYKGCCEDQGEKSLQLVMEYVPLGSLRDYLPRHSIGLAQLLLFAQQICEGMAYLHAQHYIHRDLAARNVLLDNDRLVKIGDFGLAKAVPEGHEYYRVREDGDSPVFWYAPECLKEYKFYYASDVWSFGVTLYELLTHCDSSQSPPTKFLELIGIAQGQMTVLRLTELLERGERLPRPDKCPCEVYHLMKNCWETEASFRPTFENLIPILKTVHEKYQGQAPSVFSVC

[13] = target: Tyrosine-protein kinase TXK (Homo sapiens) (UniProt P42681); test: Inhibition of wild-type human partial length TXK (L238 to W527 residues) expressed in bacterial expression system assessed as residual activity at 1 uM by Kinomescan method relative to control

SMILES: C=CC(=O)Nc1cc(Nc2cc(-c3cccc(NC(=O)c4ccc(C(C)(C)C)cc4)c3C)cn(C)c2=O)ccc1C(=O)N1CCOCC1
- Activity [1]: 99%
- Activity [2]: 100%
- Activity [3]: 100%
- Activity [4]: 100%
- Activity [5]: 96%
- Activity [6]: 87%
- Activity [7]: 92%
- Activity [8]: 99%
- Activity [9]: 91%
- Activity [10]: 100%
- Activity [11]: 92%
- Activity [12]: 74%
- Activity [13]: 100%

— ChEMBL document CHEMBL4024706 (Eur J Med Chem, 2017)
